Experimental data from the supplement of paper PMC13380429.
± gives the standard deviation of the averaged measurements.

Legend:
Conditions in all cases: 72 h
HepG2 [1] = test: drug sensitivity score (DSS) for viability; higher = more toxic; extreme values may be limits of the assay
Vero E6 [2] = test: as above
Calu-3 [3] = test: as above
U2OS [4] = test: as above
Caco-2 [5] = test: as above
HepG2 [6] = test: cell viability relative to DMSO; higher = less toxic
Vero E6 [7] = test: as above
Calu-3 [8] = test: as above
U2OS [9] = test: as above
Caco-2 [10] = test: as above
HepG2 [11] = test: relative viability EC50 (midpoint between 100% and the lowest measured viability); higher = less toxic
Vero E6 [12] = test: as above
Calu-3 [13] = test: as above
U2OS [14] = test: as above
Caco-2 [15] = test: as above

Row | SMILES | drug sensitivity score (HepG2 [1]) | drug sensitivity score (Vero E6 [2]) | drug sensitivity score (Calu-3 [3]) | drug sensitivity score (U2OS [4]) | drug sensitivity score (Caco-2 [5]) | cell viability (HepG2 [6]; 1 nM) [%] | cell viability (HepG2 [6]; 10 nM) [%] | cell viability (HepG2 [6]; 100 nM) [%] | cell viability (HepG2 [6]; 1000 nM) [%] | cell viability (HepG2 [6]; 10000 nM) [%] | cell viability (Vero E6 [7]; 1 nM) [%] | cell viability (Vero E6 [7]; 10 nM) [%] | cell viability (Vero E6 [7]; 100 nM) [%] | cell viability (Vero E6 [7]; 1000 nM) [%] | cell viability (Vero E6 [7]; 10000 nM) [%] | cell viability (Calu-3 [8]; 1 nM) [%] | cell viability (Calu-3 [8]; 10 nM) [%] | cell viability (Calu-3 [8]; 100 nM) [%] | cell viability (Calu-3 [8]; 1000 nM) [%] | cell viability (Calu-3 [8]; 10000 nM) [%] | cell viability (U2OS [9]; 1 nM) [%] | cell viability (U2OS [9]; 10 nM) [%] | cell viability (U2OS [9]; 100 nM) [%] | cell viability (U2OS [9]; 1000 nM) [%] | cell viability (U2OS [9]; 10000 nM) [%] | cell viability (Caco-2 [10]; 1 nM) [%] | cell viability (Caco-2 [10]; 10 nM) [%] | cell viability (Caco-2 [10]; 100 nM) [%] | cell viability (Caco-2 [10]; 1000 nM) [%] | cell viability (Caco-2 [10]; 10000 nM) [%] | relative viability EC50 (HepG2 [11]) [µM] | relative viability EC50 (Vero E6 [12]) [µM] | relative viability EC50 (Calu-3 [13]) [µM] | relative viability EC50 (U2OS [14]) [µM] | relative viability EC50 (Caco-2 [15]) [µM]
1 | COc1ccc2cc(C(C)C(=O)Oc3ccc(C(N)=S)cc3)ccc2c1 (stereo not given) [ATB-346] | 0 | 0 | 0 | 0 | 0 | 98.2 | 88.4 | 97.2 | 98.7 | 97.7 | 100 | 94.3 | 95.7 | 94.4 | 97.6 | 100 | 102 | 98.8 | 102 | 101 | 99.7 | 100 | 99.1 | 99.9 | 96.9 | 90 | 102 | 93.7 | 89.6 | 98.6 | > 10 | > 10 | > 10 | > 10 | > 10
2 | O=C(O)Cn1c(C(=O)Nc2nc(-c3ccccc3Cl)cs2)cc2ccccc21 | 0 | 0 | 0 | 0 | 0 | 106 | 99.2 | 101 | 104 | 93.3 | 105 | 106 | 103 | 108 | 97.4 | 100 | 92.5 | 99.4 | 103 | 102 | 96 | 101 | 95.6 | 101 | 98.5 | 103 | 99.9 | 95.1 | 89.5 | 110 | > 10 | > 10 | > 10 | > 10 | > 10
3 | c1cc(CN2CCCNCCNCCCNCC2)ccc1CN1CCCNCCNCCCNCC1 [plerixafor] | 0 | 0 | 0 | 0 | 0 | 92.9 | 104 | 88.4 | 106 | 96.5 | 104 | 99.1 | 104 | 101 | 100 | 90.7 | 104 | 97.3 | 94.4 | 105 | 101 | 99.8 | 97.9 | 97.2 | 98.1 | 101 | 96.1 | 97.5 | 101 | 95.2 | > 10 | > 10 | > 10 | > 10 | > 10
4 | CS(=O)(=O)c1ccc(-c2cnc(N)c(C(=O)Nc3ccccc3)n2)cc1 [VE-821] | 0.4 | 0 | 0 | 0 | 0 | 97.3 | 99.3 | 95 | 98.6 | 84.2 | 99.1 | 95.7 | 97.1 | 98 | 94 | 99.1 | 94.7 | 102 | 95.1 | 95.3 | 102 | 95.7 | 96.9 | 93.1 | 91.6 | 102 | 94.8 | 101 | 95.1 | 97.4 | > 10 | > 10 | > 10 | > 10 | > 10
5 | CCOCC(O)COc1ccc(NC(=O)CC[S+](C)C)cc1 (stereo not given) [suplatast] | 0 | 0 | 0 | 0 | 0 | 93.8 | 94.3 | 85 | 91.2 | 94.1 | 87.8 | 98.2 | 93.3 | 94.8 | 104 | 94.8 | 93.1 | 93.4 | 102 | 101 | 99.1 | 96.4 | 100 | 100 | 101 | 95.9 | 99 | 99.1 | 98.5 | 104 | > 10 | > 10 | > 10 | > 10 | > 10
6 | CC(=O)[C@H]1CC[C@H]2[C@@H]3CC[C@H]4C[C@H](O)CC[C@]4(C)[C@H]3CC[C@]12C [allopregnanolone] | 0 | 0 | 0 | 0 | 0 | 98.9 ± 6.8 | 92.4 ± 6.1 | 97.6 ± 7.2 | 99 ± 2.6 | 92 ± 3.5 | 95.5 ± 3.5 | 101 ± 4.5 | 95 ± 3.5 | 97.9 ± 4.7 | 98.8 ± 4.5 | 104 ± 5.9 | 102 ± 5.4 | 95.05 ± 0.64 | 104 ± 5.8 | 103 ± 3.8 | 98.8 ± 4.2 | 99.65 ± 0.92 | 98.55 ± 0.35 | 100 ± 5 | 97.7 ± 0.28 | 98 ± 0.85 | 96.6 ± 1.1 | 96.2 ± 8.3 | 100 ± 3 | 103 ± 7.4 | > 10 | > 10 | > 10 | > 10 | > 10
7 | CCOC(=O)[C@@]1(CCCCCCOc2ccc(Cl)cc2)CO1 [etomoxir] | 0 | 0 | 0 | 0 | 0.4 | 115 | 106 | 101 | 108 | 91.7 | 113 | 106 | 110 | 104 | 98.1 | 106 | 114 | 98.2 | 117 | 110 | 105 | 102 | 104 | 103 | 97.7 | 92.6 | 97.6 | 98.2 | 98 | 85.6 | > 10 | > 10 | > 10 | > 10 | > 10
8 | Cn1c(=O)cc(N2CCC[C@@H](N)C2)n(Cc2cc(F)ccc2C#N)c1=O [trelagliptin] | 0 | 0 | 0 | 0 | 0 | 96.7 | 99.1 | 88.3 | 96.5 | 88.8 | 102 | 98.4 | 99.2 | 103 | 98.2 | 98.9 | 110 | 105 | 102 | 107 | 104 | 95.6 | 96.6 | 95.1 | 106 | 101 | 98.9 | 92.3 | 104 | 95.6 | > 10 | > 10 | > 10 | > 10 | > 10
9 | C=Cc1c(C)c2cc3nc(c(CC(=O)O)c4[n-]c(cc5nc(cc1[n-]2)C(C)=C5CC)c(C)c4C(=O)O)[C@@H](CCC(=O)O)[C@@H]3C.[Cu+2] [chlorophyllin-copper] | 0 | 0.1 | 0.7 | 0 | 0 | 89.6 | 104 | 82.3 | 105 | 88.8 | 103 | 97.3 | 95.2 | 102 | 85.9 | 88.2 | 85.4 | 104 | 104 | 75.4 | 94.9 | 97.2 | 98.7 | 91.9 | 88.6 | 88.2 | 84 | 98.7 | 95.8 | 89.4 | > 10 | > 10 | > 10 | > 10 | > 10
10 | Cc1onc(-c2ccccc2)c1C(=O)N[C@@H]1C(=O)N2[C@@H]1SC(C)(C)[C@@H]2C(=O)O [oxacillin] | 0 | 0 | 0 | 0 | 0 | 89.9 | 102 | 91.3 | 114 | 108 | 99.4 | 87.2 | 102 | 93.9 | 94 | 92.6 | 104 | 102 | 99.1 | 96.2 | 100 | 98.7 | 98 | 98.9 | 108 | 92.9 | 93.3 | 98.1 | 85.2 | 116 | > 10 | > 10 | > 10 | > 10 | > 10
11 | O=C(O)CCNC(=O)c1ccccc1 [betamipron] | 0 | 0 | 0 | 0 | 0 | 94.8 | 111 | 95.9 | 114 | 105 | 94.6 | 96.4 | 95.6 | 92.2 | 96.2 | 108 | 90.6 | 113 | 104 | 116 | 102 | 98 | 101 | 92.5 | 99.4 | 90.2 | 95.6 | 99.7 | 100 | 103 | > 10 | > 10 | > 10 | > 10 | > 10
12 | CCC(=O)O[C@@](Cc1ccccc1)(c1ccccc1)[C@@H](C)CN(C)C [levopropoxyphene] | 0 | 0 | 0 | 0 | 0 | 94.3 | 97.1 | 96.4 | 94.7 | 89.4 | 100 | 100 | 96 | 101 | 95.4 | 104 | 90.1 | 94.7 | 102 | 104 | 104 | 101 | 101 | 98.8 | 100 | 99.3 | 103 | 98.3 | 100 | 102 | > 10 | > 10 | > 10 | > 10 | > 10
13 | C[C@H]1C[C@@H]2[C@H]([C@@H](O)C[C@@]3(C)[C@H]2CC[C@]3(O)C(=O)CO)[C@@]2(C)C=CC(=O)C=C12 [methylprednisolone] | 0 | 0 | 0 | 0 | 0 | 109 | 107 | 103 | 98.5 | 104 | 104 | 103 | 96.6 | 106 | 101 | 105 | 102 | 99.3 | 99.6 | 106 | 102 | 97.9 | 91.4 | 98.9 | 95.2 | 96 | 108 | 90.3 | 99.3 | 98.4 | > 10 | > 10 | > 10 | > 10 | > 10
14 | CC(C(=O)O)c1ccc2c(c1)Cc1ccccc1-2 (stereo not given) [cicloprofen] | 0 | 0 | 0 | 0 | 0 | 101 | 93.7 | 106 | 95.7 | 112 | 104 | 101 | 101 | 93.8 | 101 | 95.4 | 103 | 97.6 | 93.7 | 90.5 | 96.9 | 98 | 94.4 | 98.5 | 106 | 96.8 | 97.9 | 99.9 | 102 | 107 | > 10 | > 10 | > 10 | > 10 | > 10
